“And” between values parts separate entries of the source, which are not always exact repeats. Equal entries are not always repeated. “Also recorded” adds a separate entry of the source.
Legend:
[1] = Sweet taste / sweetness enhancing properties of 6″-O-acetylphloridzin; settings: in vivo
Description: It can therefore not be concluded that any dihydrochalcone glycoside carrying an acetyl substituent will taste sweet or be able to enhance or modulate sweetness.

[2] = Descriptor intensities (0-9) in orange softdrink base, panel of five flavorists; assay type: in vivo; settings: for Lingering sweetness (0-9) A / Off note (0-9) A / Onset sweetness (0-9) A / Overall sweetness (0-9) A / acidity (0-9) A / fruity (0-9) A / juicy (0-9) A / mouthfeel (0-9) A / orange (0-9) A: A: substance alone in orange softdrink base; for Lingering sweetness (0-9) A / Off note (0-9) A / Onset sweetness (0-9) A / Overall sweetness (0-9) A / acidity (0-9) A / fruity (0-9) A / juicy (0-9) A / mouthfeel (0-9) A / orange (0-9) A / Lingering sweetness (0-9) B / Off note (0-9) B / Onset sweetness (0-9) B / Overall sweetness (0-9) B / acidity (0-9) B / fruity (0-9) B / juicy (0-9) B / mouthfeel (0-9) B / orange (0-9) B: RS 200, PD 120, HT 10, PH 30 mg/kg, n=5; for Lingering sweetness (0-9) B / Off note (0-9) B / Onset sweetness (0-9) B / Overall sweetness (0-9) B / acidity (0-9) B / fruity (0-9) B / juicy (0-9) B / mouthfeel (0-9) B / orange (0-9) B: B: + 20 mg/kg G92828 in orange softdrink base; for Lingering sweetness (0-9) Δ / Off note (0-9) Δ / Onset sweetness (0-9) Δ / Overall sweetness (0-9) Δ / acidity (0-9) Δ / fruity (0-9) Δ / juicy (0-9) Δ / mouthfeel (0-9) Δ / orange (0-9) Δ: difference B vs A (effect of 20 mg/kg G92828)
Experimental: Different descriptors relevant for the overall liking of an orange softdrink were applied and the differences in intensities of each descriptor (Δ) of FMP (A) to FMP+ compound (1) (B) were determined by a panel of five flavorists (n=5) and given as intensities from 0-9 as shown in Tables 4-12. The panelists were asked to neutralise with tap water between each sample and the intensity of the descriptors of each sample were defined before tasting the next sample. The tasting of each RS, PD, HT or PH (A) were followed by the samples with added RS, PD, HT or PH+compound (1) (B) with each being compared to the intensities of the base.

[3] = Sensory profile of sugar solution with added compounds; assay type: in vivo; settings: 80 mg/kg in 5% sucrose solution
[4] = Intrinsic sweetness by Duo test against 1.5% sucrose; assay type: in vivo
Experimental: 200 g/l L. litseifolius leaf extract (47% trilobatin, 7% phloridizin) was dissolved in triacetin and reacted with lipase Novozyme 435 for 6 h at 80° C. After cooling the mixture, the solution was filtrated. The solution contained 4.2% compound 1. The intrinsic sweetness of the solution was determined by a Duo test comparing different concentrations of this solution with a 1.5% sucrose sample. It turned out that 0.15% of the solution (containing 63 mg/kg compound 1) was as sweet as 1.5% sucrose.
The intrinsic sweetness of pure compound (1) (>95%) was determined by a panel of 20 trained panellists. Thereby, a 1.5% sucrose solution was compared by a Duo test with 65 mg/kg of compound (1) in water. […] The intrinsic sweetness of compound (1) in a mixture of trilobatin and diacetyl trilobatins was similar than of pure compound (1).

[5] = Duo test (paired comparison, trained sensory panel) of compounds against 5% sucrose solution; assay type: in vivo; settings: 50 mg/kg in 5% sucrose solution; for sweet modul. activity (%): 20 panelists, perceived sweeter than without addition
Description: The sensory impact of trilobatin and compound (1) have been compared by a trained sensory panel (Table 1) using a series of paired comparison tests. The samples were coded and randomized (referred to as Duo test):
Each of compound (1) and trilobatin has been compared with a 5% sucrose solution in water.

[6] = cited from earlier work
[7] = soft drink base and in combination with RS, PD, HT and PH

With `CC(=O)OC[C@H]1O[C@@H](Oc2cc(O)cc(O)c2C(=O)CCc2ccc(O)cc2)[C@H](O)[C@@H](O)[C@@H]1O` [6″-O-Acetylphloridzin] the “sweet taste or sweetness enhancing properties” value [1] was “did not show any sweet taste or sweetness enhancing properties”.
In the case of `COc1ccc([C@@H]2CC(=O)c3c(O)cc(O)cc3O2)cc1O` [HT, Hesperetin], the “Lingering sweetness (0-9) A” value [2] is reported as 0.0, the “Off note (0-9) A” value [2] is reported as 0.0 and the “Onset sweetness (0-9) A” value [2] is reported as 5.0. For the same compound, the “Overall sweetness (0-9) A” value [2] was 6.0, the “acidity (0-9) A” value [2] was 4.0 and the “fruity (0-9) A” value [2] was 5.0. For the same compound, the “juicy (0-9) A” value [2] was 4.0, the “mouthfeel (0-9) A” value [2] was 4.0 and the “orange (0-9) A” value [2] was 5.0. The “Lingering sweetness (0-9) B” value [2] was 0.0, the “Off note (0-9) B” value [2] was 0.0 and the “Onset sweetness (0-9) B” value [2] was 6.0. For the same compound, the “Overall sweetness (0-9) B” value [2] was 7.5, the “acidity (0-9) B” value [2] was 3.5 and the “fruity (0-9) B” value [2] was 5.0. The “juicy (0-9) B” value [2] was 5.0, the “mouthfeel (0-9) B” value [2] was 4.5 and the “orange (0-9) B” value [2] was 5.0. The “Lingering sweetness (0-9) Δ” value [2] was 0.0, the “Off note (0-9) Δ” value [2] was 0.0 and the “Onset sweetness (0-9) Δ” value [2] was 1.0. For the same compound, the “Overall sweetness (0-9) Δ” value [2] was 1.5, the “acidity (0-9) Δ” value [2] was −0.5 and the “fruity (0-9) Δ” value [2] was 0.0. For the same compound, the “juicy (0-9) Δ” value [2] was 1.0, the “mouthfeel (0-9) Δ” value [2] was 0.5 and the “orange (0-9) Δ” value [2] was 0.0.
With `O=C(CCc1ccc(O)cc1)c1c(O)cc(O)cc1O` [PH, Phloretin] the “Lingering sweetness (0-9) A” value [2] was 0.0, the “Off note (0-9) A” value [2] was 0.0 and the “Onset sweetness (0-9) A” value [2] was 5.0. For the same compound, the “Overall sweetness (0-9) A” value [2] was 6.5, the “acidity (0-9) A” value [2] was 3.5 and the “fruity (0-9) A” value [2] was 5.5. The “juicy (0-9) A” value [2] was 5.0, the “mouthfeel (0-9) A” value [2] was 4.0 and the “orange (0-9) A” value [2] was 5.0. For the same compound, the “Lingering sweetness (0-9) B” value [2] was 0.0, the “Off note (0-9) B” value [2] was 0.0 and the “Onset sweetness (0-9) B” value [2] was 6.0. The “Overall sweetness (0-9) B” value [2] was 6.5, the “acidity (0-9) B” value [2] was 3.0 and the “fruity (0-9) B” value [2] was 5.5. For the same compound, the “juicy (0-9) B” value [2] was 5.5, the “mouthfeel (0-9) B” value [2] was 5.0 and the “orange (0-9) B” value [2] was 5.0. For the same compound, the “Lingering sweetness (0-9) Δ” value [2] was 0.0, the “Off note (0-9) Δ” value [2] was 0.0 and the “Onset sweetness (0-9) Δ” value [2] was 1.0. For the same compound, the “Overall sweetness (0-9) Δ” value [2] was 0.0, the “acidity (0-9) Δ” value [2] was −0.5 and the “fruity (0-9) Δ” value [2] was 0.0. For the same compound, the “juicy (0-9) Δ” value [2] was 0.5, the “mouthfeel (0-9) Δ” value [2] was 1.0 and the “orange (0-9) Δ” value [2] was 0.0.
In the case of `CC(=O)OC[C@H]1O[C@@H](Oc2cc(O)c(C(=O)CCc3ccc(O)cc3)c(O)c2)[C@H](O)[C@@H](O)[C@@H]1O` [compound (1), 6″-O-acetyltrilobatin], the “Lingering sweetness (0-9) B” value [2] is reported as 0.0, the “Off note (0-9) B” value [2] is reported as 0.0 and the “Onset sweetness (0-9) B” value [2] is reported as 4.5. The “Overall sweetness (0-9) B” value [2] was 6.0, the “acidity (0-9) B” value [2] was 3.5 and the “fruity (0-9) B” value [2] was 5.0. The “juicy (0-9) B” value [2] was 4.0, the “mouthfeel (0-9) B” value [2] was 4.0 and the “orange (0-9) B” value [2] was 5.0. The “effect on perceived acidity” value ([2]; base, RS, HT and PH) was “reducing perceived acidity”, the “Lingering sweetness (0-9) Δ” value [2] was 0.0 and the “Off note (0-9) Δ” value [2] was 0.0. For the same compound, the “Onset sweetness (0-9) Δ” value [2] was 0.5, the “Overall sweetness (0-9) Δ” value [2] was 1.0 and the “acidity (0-9) Δ” value [2] was −0.5. The “fruity (0-9) Δ” value [2] was 0.0, the “juicy (0-9) Δ” value [2] was 0.0 and the “mouthfeel (0-9) Δ” value [2] was 0.5. For the same compound, the “effect on acidity” value ([2]; in combination with PD) was “no reduction in acidity”, the “effect on lingering aftertaste” value ([2]; in combination with PD) was “slightly reduced” and the “effect on overall sweetness” value ([2]; in combination with PH, compared to PH) was “no increase in overall sweetness”. For the same compound, the “effect on lingering aftertaste” value ([2]; in combination with RS) was “slight increase in lingering aftertaste”, the “effect on fruity notes” value ([2]; in combination with RS and PD) was “increasing fruity notes” and the “effect on overall sweetness” value ([2]; in combination with RS, PD and HT) was “increased”. For the same compound, the “effect on onset sweetness” value ([2]; in combination with RS, PD, HT and PH) was “increases the onset sweetness”, the “effect on juicy character” value ([2]; in combination with each tested FMP) was “increasing the juicy character” and the “effect on intensity of orange flavor” value [2, 7] was “no impact”. For the same compound, the “effect on off notes” value [2, 7] was “no impact”, the “effect on juicy notes” value ([2]; test base alone) was “no effect” and the “effect on mouthfeel” value ([2]; test base and every tested FMP) was “improves the mouthfeel”. It also gave an Aftertaste [3] of 1, an Impact [3] of 4 and an Intensity [3] of 6. The Mouthfeel [3] was 5, the “concentration of compound 1 contained in solution as sweet as 1.5% sucrose” value ([4]; in enzymatically acetylated L. litseifolius leaf extract solution (4.2% compound 1) dosed at 0.15%) was 63 mg/kg and the “intrinsic sweetness in a mixture of trilobatin and diacetyl trilobatins compared with pure compound” value ([4]; in vivo) was “similar”. For the same compound, the “significance of sweet modulating activity / sensory effect” value [5] was “significant” and the “sweet modul. activity (%)” value [5] was 27.5% and 27.54%.
For `O=C(CCc1ccc(O)cc1)c1c(O)cc(O[C@@H]2O[C@H](CO)[C@@H](O)[C@H](O)[C@H]2O)cc1O` [trilobatin, phloretin-4′-β-D-glucopyranoside], the “taste at 20 mg/kg” value ([6]; 20 mg/kg) is given as “does not taste sweet”, the “taste at 100 mg/kg” value ([6]; 100 mg/kg, compared to 0.5% sucrose solution) is given as “weakly sweet” and the “concentration above which sweetness can be detected” value ([6]; in vivo) is given as “above 60 mg/kg”. The Aftertaste [3] was 1, the Impact [3] was 3 and the Intensity [3] was 4. The Mouthfeel [3] was 5, the “significance of sweet modulating activity / sensory effect” value [5] was “did not have a significant sensory effect; also recorded: did not show a significant sensory effect” and the “sweet modul. activity (%)” value [5] was 1.66%.

From patent US20240407414A1, “DIHYDROCHALCONE DERIVATIVES” (SYMRISE AG, priority 2021, published 2024)
